Measured values: US11499978B2, “Method for measuring quality of therapeutic cell through real-time glutathione measurement” (CELL2IN, INC., priority 2017, dated 2022)

Assays:
[1] = test system: hUC-MSCs; test: FreSH-Tracer-based glutathione regeneration capacity (GRC) in hUC-MSCs; parameters: species or system human; settings: hUC-MSCs subcultured three times with AA2G 250 μg/mL; low concentration of diamide; compared with naive cell group
Experimental: (§1) GRC refers to a value obtained by real-time monitoring of FR after living cells are treated with an oxidizing agent, as calculated by dividing a value obtained by subtracting AUC of a group treated with 0.1-100 mM N-ethylmaleimide (NEM) from FR AUC of an oxidizing agent (diamide, H2O2, etc.)-treated group by a value obtained by subtracting the AUC of NEM-treated group from AUC of the untreated control, and multiplying the resulting value by 100. The FR of the NEM-treated group is a value for increasing the sensitivity of a GRC value by treating it as the blank value of the FR of the cells of interest. […] To remove the MitoFreSH-Tracer from the medium before measurement, the medium was exchanged with fresh 10 mM HEPES-containing HBSS(Hanks' Balanced Salt Solution), and a fluorescence image was obtained using a confocal imaging system, Operetta. By comparing GSH levels quantified from control cells not treated with RSL3 or control cells before treated with RSL3, the distribution of GSH expression-changed cells was calculated. Based on the point where the distribution histogram is divided into two peaks, the cells were divided into GSH^High cells (right peak) and GSH^Low cells (left peak), and then a ratio of corresponding cells was expressed as a percentage (%). […]

[2] = test system: T cells; test: Anti-inflammatory effect of treated hUC-MSCs on T cells; format: cell-based; settings: hUC-MSCs treated with 125 or 250 μg/mL AA2G for three days
Experimental: The inventors observed an effect of the material on stem cells by treating each stem cells with a material for enhancing a glutathione evaluation parameter. When hUC-MSCs were subcultured in a L-AA2G-containing medium, CFU-F, migration capacity, and an anti-inflammatory effect were observed. A CFU-F assay (n=3) was performed by treating hUC-MSCs with 125 or 250 μg/mL of AA2G for three days. As shown in FIGS. 16A and 16B, it was confirmed that, when AA2G was treated, CFU-F increased. In addition, as hUC-MSCs were treated with 125 or 250 μg/mL of AA2G for three days, PDGF-AA-induced migration capacity (n=3) was analyzed. As shown in FIGS. 17A and 17B, it was confirmed that the migration capacity was increased by AA2G treatment. In addition, the reduction in T cell proliferation, the reduction in T cell differentiation, and the promotion of Treg cell differentiation were observed by treating hUC-MSCs with 125 or 250 μg/mL of AA2G for three days.
In addition, hUC-MSCs were cultured with ferrostatin-1 (0.2, 1, 2 and 4 μM) and liproxstatin-1 (0.1, 0.5, 1 and 2 μM), which control a glutathione level in cells by inhibiting lipid oxidation. […] Meanwhile, the hUC-MSCs were treated with 1 μM ferrostatin-1 for 24 hours, 0.2 mM GGC for 2 hours, and 2 mM GSH-EE for 2 hours. As a result, the reduction in T cell proliferation ability and the reduction in T cell differentiation capacity were observed, and promotion of Treg cell differentiation was observed.

[3] = test system: hUC-MSCs; test: Oxidative stress resistance capacity (ORC) analysis in hUC-MSCs with RSL3; format: cell-based, human; settings: hUC-MSCs subcultured three times with AA2G 250 μg/mL; compared with naive cell group (NC)
Experimental: as §1

[4] = test system: hUC-MSCs; test: SDF1α- and PDGF-AA-induced migration capacity of hUC-MSCs; format: cell-based, human; settings: 125 or 250 μg/mL AA2G for three days, n=3
Experimental: The inventors observed an effect of the material on stem cells by treating each stem cells with a material for enhancing a glutathione evaluation parameter. When hUC-MSCs were subcultured in a L-AA2G-containing medium, CFU-F, migration capacity, and an anti-inflammatory effect were observed. A CFU-F assay (n=3) was performed by treating hUC-MSCs with 125 or 250 μg/mL of AA2G for three days. As shown in FIGS. 16A and 16B, it was confirmed that, when AA2G was treated, CFU-F increased. In addition, as hUC-MSCs were treated with 125 or 250 μg/mL of AA2G for three days, PDGF-AA-induced migration capacity (n=3) was analyzed. As shown in FIGS. 17A and 17B, it was confirmed that the migration capacity was increased by AA2G treatment. In addition, the reduction in T cell proliferation, the reduction in T cell differentiation, and the promotion of Treg cell differentiation were observed by treating hUC-MSCs with 125 or 250 μg/mL of AA2G for three days. […] Meanwhile, hUC-MSCs were cultured with a glutathione precursor such as γ-glutamyl cysteine (GGC, 0.1, 0.25, and 0.5 mM). […] In addition, SDF1α and PDGF-AA-induced migration capacities (n=3) were analyzed for hUC-MSCs without treatment with GGC, and SDF1α and PDGF-AA-induced migration abilities (n=3) were analyzed by treating hUC-MSCs with the increasing concentrations of GGC. […]

O=C1O[C@H]([C@@H](O)CO)C(O)=C1O[C@H]1O[C@H](CO)[C@@H](O)[C@H](O)[C@H]1O [AA2G, ascorbic acid 2-glucoside]
FreSH-Tracer-based GRC [1]: increased
T cell differentiation [2]: reduction
T cell proliferation [2]: reduction
Treg cell differentiation [2]: promotion
anti-inflammatory effect of stem cells [2]: exhibited
FreSH-Tracer-based ORC (GSH^High cells) [3]: higher
PDGF-AA-induced migration capacity [4]: increased
